# Measured values reported in patent US20140273093A1, “METHODS OF PRODUCING ANTIBODIES IN YEAST” (BRISTOL-MYERS SQUIBB COMPANY, priority 2013, published 2014).
# Test system: P. pastoris
# Assay: P. pastoris fed-batch fermentation Run 01MAY11: effects of hydroxyurea on cell growth and anti-IL-6 antibody productivity
# Format: cell-based, Pichia pastoris
# Conditions: for Sup Titer / WCW / WB Titer: Lots T5, T6 & T10; for Sup Titer / WB Titer: hydroxyurea 2.6-2.8 g/L; for WCW: hydroxyurea 2.6-2.8 g/L added 5 hours after feed start; for WB Titer: calculated from supernatant titer and WCW
# Protocol: The glucose and ethanol were measured by YSI 2700 (YSI Incorporated, Yellow Springs, Ohio), O2 and CO2 of the exhaust line were measured by Questor GP Process Mass Spectrometer (ABB Extrel, Pittsburg, Pa.) and the RQ value was calculated using below Equation [1]. The wet cell weight (WCW) was measured by centrifuging 1 milliliter (mL) fermentation broth at 13,200 rpm for 10 minutes, weighing pellet, and calculated ratio of pellets weight (g) over volume (mL). The supernatant titer (g/L) was measured by the HPLC method and the whole broth (WB) titer was then calculated by below Equation [2].
# WB_Titer=Supernatant_Titer*(1−WCW/1000)
# The treatment cultures were operated the same way plus adding hydroxyurea 5 hours after feed start.
structure (smiles),measurement,setting,value
NC(=O)NO [Hydroxyurea],average whole broth titer,"90 hours run time, three hydroxyurea treatment lots, control 59.8",75 normalized units
same,Sup Titer,Age 59 h,83.9 ± 2.2 Normalized
same,WCW,Age 59 h,437 ± 17 g/kg
same,WB Titer,Age 59 h,47.2 ± 1.8 Normalized
same,Sup Titer,Age 90 h,123.3 ± 5.8 Normalized
same,WCW,Age 90 h,392 ± 20 g/kg
same,WB Titer,Age 90 h,75.0 ± 2.7 Normalized
same,WCW reached/maintained by hydroxyurea treatment lots,"after peak cell density at 30-40 hours, control lots ~400 g/Kg",~450 g/kg
